Patent US20250281516A1, “NUTRACEUTICAL FORMULATION FOR POLYCYSTIC OVARY SYNDROME” (priority 2019, published 2025)

Assays:
PCOS symptoms = assay: Physician's further feedback in general on PCOS symptom control; set-up: species or system women; conditions: in vivo
patients (ovulation) = conditions: inositol alone administered; cited from earlier work
infertile PCOS women = conditions: inositol and folic acid administered; cited from earlier work

SMILES | effectiveness compared with the combination formulation (PCOS symptoms) | patients showing improvement in ovulation (patients (ovulation)) | restoration of ovulation (infertile PCOS women) | duration of treatment after which most PCOS symptoms were controlled (PCOS symptoms)
O[C@H]1[C@H](O)[C@@H](O)[C@H](O)[C@@H](O)[C@H]1O [inositol] | not as effective | about 62% | about 70% | 
O[C@H]1[C@H](O)[C@@H](O)[C@H](O)[C@@H](O)[C@H]1O [myo-inositol] |  |  |  | > 6 month
